# Laboratory results as given in ChEMBL document CHEMBL3352653, “Synthesis of pyrazolo[4,3-a]phenanthridines, a new scaffold for Pim kinase inhibition” (Bioorg Med Chem, 2014).
# Legend:
# [1] = biological target: Serine/threonine-protein kinase pim-2 (Homo sapiens) (UniProt Q9P1W9); assay: Inhibition of full-length human PIM2 using RSRHSSYPAGT as substrate assessed as residual kinase activity at 1 uM after 30 mins in presence of [gamma-33P]ATP
# [2] = biological target: T1, Serine/threonine-protein kinase pim-1 (Homo sapiens, UniProt P11309); assay: Inhibition of full-length human PIM1 using RSRHSSYPAGT as substrate assessed as residual kinase activity at 10 uM after 30 mins in presence of [gamma-33P]ATP
# Target sequence in this assay (P11309 whole entry, looked up): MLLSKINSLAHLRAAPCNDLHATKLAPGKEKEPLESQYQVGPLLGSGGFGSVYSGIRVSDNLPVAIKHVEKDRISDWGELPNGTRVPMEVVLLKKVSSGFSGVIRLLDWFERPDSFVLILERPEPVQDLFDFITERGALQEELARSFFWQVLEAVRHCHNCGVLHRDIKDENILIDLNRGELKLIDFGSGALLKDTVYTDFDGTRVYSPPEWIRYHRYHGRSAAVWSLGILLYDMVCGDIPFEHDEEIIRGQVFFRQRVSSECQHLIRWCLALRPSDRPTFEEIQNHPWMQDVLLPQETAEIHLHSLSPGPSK
# [3] = biological target: T2, Serine/threonine-protein kinase pim-3 (Homo sapiens, UniProt Q86V86); assay: Inhibition of full-length human PIM3 using RSRHSSYPAGT as substrate assessed as residual kinase activity at 10 uM after 30 mins in presence of [gamma-33P]ATP
# [4] = Antiproliferative activity against human PC3 cells at 10 uM after 72 hrs by MTS assay; assay type: functional; conditions: PC-3, 72 h
# [5] = Antiproliferative activity against human PC3 cells after 72 hrs by MTS assay; assay type: functional, cell-based; conditions: PC-3, 72 h
# [6] = biological target: T1, Serine/threonine-protein kinase pim-1; assay: Inhibition of full-length human PIM1 using RSRHSSYPAGT as substrate assessed as residual kinase activity at 1 uM after 30 mins in presence of [gamma-33P]ATP
# Target sequence in this assay (P11309 whole entry, looked up): as the sequence (P11309 whole entry, looked up) above
# LNCaP = assay: Antiproliferative activity against human LNCAP cells at 10 uM after 72 hrs by MTS assay; assay type: functional
# [7] = biological target: T1, Serine/threonine-protein kinase pim-1; assay: Inhibition of full-length human PIM1 using RSRHSSYPAGT as substrate assessed as residual kinase activity after 30 mins in presence of [gamma-33P]ATP
# Target sequence in this assay (P11309 whole entry): as the sequence (P11309 whole entry, looked up) above
# [8] = biological target: T2, Serine/threonine-protein kinase pim-3; assay: Inhibition of full-length human PIM3 using RSRHSSYPAGT as substrate assessed as residual kinase activity after 30 mins in presence of [gamma-33P]ATP
# [9] = biological target: Serine/threonine-protein kinase pim-2 (Homo sapiens) (UniProt Q9P1W9); assay: Inhibition of full-length human PIM2 using RSRHSSYPAGT as substrate assessed as residual kinase activity at 10 uM after 30 mins in presence of [gamma-33P]ATP
# [10] = biological target: T2, Serine/threonine-protein kinase pim-3; assay: Inhibition of full-length human PIM3 using RSRHSSYPAGT as substrate assessed as residual kinase activity at 1 uM after 30 mins in presence of [gamma-33P]ATP
# Serine/threonine-protein kinase pim-2 (Homo sapiens), sequence (Q9P1W9 whole entry, looked up): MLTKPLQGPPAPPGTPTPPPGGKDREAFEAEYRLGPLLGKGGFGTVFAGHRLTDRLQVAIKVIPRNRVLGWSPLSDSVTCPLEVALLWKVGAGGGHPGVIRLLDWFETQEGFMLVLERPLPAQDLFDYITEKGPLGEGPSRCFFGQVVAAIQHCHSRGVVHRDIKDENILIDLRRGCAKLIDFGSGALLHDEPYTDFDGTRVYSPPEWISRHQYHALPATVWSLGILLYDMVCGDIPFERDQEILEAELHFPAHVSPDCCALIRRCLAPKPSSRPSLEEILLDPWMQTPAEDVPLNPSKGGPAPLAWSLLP
SMILES,Activity [1],Activity [2],Activity [3],inhibition at 10 µM [4],IC50 [5],Activity [6],inhibition at 10 µM (LNCaP),IC50 [7],IC50 [8],Activity [9],Activity [10]
COc1ccc2c(cnc3c([N+](=O)[O-])cc4[nH]ncc4c32)c1,64%,15%,5.5%,73%,1100 nM,20%,40%,120 nM,140 nM,55%,8%
O=[N+]([O-])c1cc2[nH]ncc2c2c1ncc1ccc(Cl)cc12,83%,9%,4%,75%,3000 nM,28%,31%,–,200 nM,47%,8.9%
COc1ccc2c(cnc3c(N)cc4[nH]ncc4c32)c1,100%,35%,16.5%,–,–,96%,–,–,–,84%,60%
Nc1cc2[nH]ncc2c2c1ncc1ccccc12,86%,17%,24%,–,–,55%,–,–,–,43%,55%
Nc1cc2[nH]ncc2c2c1ncc1ccc(Cl)cc12,96%,18%,10.5%,–,–,88%,–,–,–,57%,50%
Nc1cc2[nH]ncc2c2c1ncc1c(F)cccc12,110%,16%,7.9%,–,–,90%,–,–,–,76%,42%
O=[N+]([O-])c1cc2[nH]ncc2c2c1ncc1c(F)cccc12,84%,19%,6.7%,37%,–,46%,46%,–,169 nM,66%,14%
O=[N+]([O-])c1cc2[nH]ncc2c2c1ncc1ccccc12,46%,2.2%,0.9%,68%,2460 nM,16%,54%,70 nM,20 nM,8.1%,6%
O=[N+]([O-])c1cc2[nH]ncc2c2c1ncc1cc3c(cc12)OCO3,92%,15.8%,7%,60%,5000 nM,53%,54%,–,400 nM,54%,18.9%
c1ccc2c(c1)cnc1ccc3[nH]ncc3c12,84.6%,11%,47%,–,–,44%,–,–,–,38%,98%
